From US20190177440A1, “COMPOUND OR SALT THEREOF, ANTI-INFLAMMATORY AGENT, ANTI-CANCER AGENT AGAINST LUNG CANCER, METHOD OF PRODUCING COMPOUND OR SALTS THEREOF, METHOD OF TREATING INFLAMMATORY DISEASES AND METHOD OF TREATING LUNG CANCER” (TFK CO., LTD., priority 2016, published 2019)

test system: NF-κB; experiment: Nuclear NF-κB level in RAW264.7 mouse macrophage cells (Example 4); format: cell-based; details: final 1 and 100 ng/mL, 24 hours pre-treatment, no LPSp, FIG. 4
Procedure: In the same manner as “(1) Preparation of test solution” in Example 3, a solution having a concentration of the purified product of 20,000 ng/mL was prepared, and the solution was serially diluted with a culture solution having the following composition, thereby obtaining two test solutions having 100 ng/mL and 10,000 ng/mL. Since the two test solutions are diluted 100-fold when added to the cells, the final concentrations of the purified product are 1 ng/mL and 100 ng/mL, respectively.
The culture medium was added to mouse macrophage cells (RAW264.7, ATCC) to prepare solutions at concentrations of 1.067×10^6 cells/mL. The solutions were seeded in 6 well plates in 3 mL portions, i.e., 3.2×10^6 cells/3 mL/well. After seeding, the test solution was incubated at 37° C. in a 5% CO2 for 2 hours, and 30 μL of the test solution was added to each well. After adding the test solution, the test solution was incubated at 37° C. in a 5% CO2 for 24 hours. The culture supernatant of each of the wells was then collected in a 15 mL tube. Then, 1 mL of the fresh culture solution was added to each of the wells, and after spreading over the entire well, the operation of collecting the culture solution into the 15 mL tube was repeated twice. Thereafter, the culture solution collected in the 15 mL tube was centrifuged at 1,000 rpm for 3 minutes, the supernatant was removed, and 3 mL of a new culture solution at 37° C. was added to suspend the culture solution, and centrifuged again under the same conditions. After centrifugation, the supernatant was removed, and 2 mL of the above-mentioned culture solution at 37° C. was added to the precipitate and suspended. Then, 2 mL of the suspension was added to each well to which 1 mL of a new culture medium had been added in advance. Thereafter, 30 μL of a new culture medium was added (hereinafter, this step is referred to as a “culture medium addition step”). After incubation at 37° C. in a 5% CO2 for 30 minutes, the culture supernatants of the wells were collected in 15-mL tubes, centrifuged at 1,000 rpm for 3 minutes, and the supernatants were removed by an aspirator. In addition, to the wells of the 6-well plate from which the culture supernatant was removed, 3 mL of cooled PBS (Phosphate buffered saline)/Phosphatase Inhibitors solution was added, the cells were removed by pipetting, and the cell suspension was added to the 15-mL tubes. The 15 mL tube was centrifuged at 1,000 rpm for 3 minutes, the supernatant was removed by an aspirator, and 0.5 mL of the cooled PB S/Phosphatase Inhibitors solution was added to the 15 mL tube and suspended to prepare a cell suspension. […]
The amount of NF-κB in the nucleoprotein was confirmed by measuring the absorbance using the Trans AM NF KB p65 kit (manufactured by Active Motif).

Row | Structure (SMILES) | amount of NF-κB in the nucleoprotein (absorbance)
1 | CCCCCC/C=C/CCCCCC(=O)OC(CCCCCCCCCCC)CC(=O)NC1C(OCC2OC(OP(=O)(O)O)C(NC(=O)CC(=O)CCCCCCCCCCC)C(OC(=O)CC(O)CCCCCCC)C2O)OC(COC2(C(=O)O)CC(OC3(C(=O)O)CC(O)C(OC4OC(C(=O)O)C(OC5OC(CO)C(O)C(O)C5O)C(O)C4O)C(C(O)CO)O3)C(OC3OC(COP(=O)(O)O)C(OC4OC(CO)C(O)C(O)C4O)C(O)C3O)C(C(O)CO)O2)C(OP(=O)(O)O)C1OC(=O)CC(O)CCCCCCC (stereo not shown) [Formula (B1)] | Equivalent results were obtained
2 | CCCCCC/C=C/CCCCCC(=O)OC(CCCCCCCCCCC)CC(=O)NC1C(OCC2OC(OP(=O)(O)O)C(NC(=O)CC(=O)CCCCCCCCCCC)C(OC(=O)CC(O)CCCCCCC)C2O)OC(COC2(C(=O)O)CC(OC3(C(=O)O)CC(OC4OC(C(=O)O)C(OC5OC(CO)C(O)C(O)C5O)C(O)C4O)C(O)C(C(O)CO)O3)C(OC3OC(COP(=O)(O)O)C(OC4OC(CO)C(O)C(O)C4O)C(O)C3O)C(C(O)CO)O2)C(OP(=O)(O)O)C1OC(=O)CC(O)CCCCCCC (stereo not shown) [Formula (A1)] | Equivalent results were obtained
3 | CCCCCC/C=C/CCCCCC(=O)OC(CCCCCCCCCCC)CC(=O)NC1C(OCC2OC(OP(=O)(O)O)C(NC(=O)CC(=O)CCCCCCCCCCC)C(OC(=O)CC(O)CCCCCCC)C2O)OC(COC2(C(=O)O)CC(OC3(C(=O)O)CC(O)C(OC4OC(C(=O)O)C(OC5OC(CO)C(O)C(O)C5O)C(O)C4O)C(C(O)CO)O3)C(OC3OC(CO)C(O)C(O)C3O)C(C(O)CO)O2)C(OP(=O)(O)O)C1OC(=O)CC(O)CCCCCCC (stereo not shown) [Formula (B2)] | Equivalent results were obtained
4 | CCCCCC/C=C/CCCCCC(=O)OC(CCCCCCCCCCC)CC(=O)NC1C(OCC2OC(OP(=O)(O)O)C(NC(=O)CC(=O)CCCCCCCCCCC)C(OC(=O)CC(O)CCCCCCC)C2O)OC(COC2(C(=O)O)CC(OC3(C(=O)O)CC(OC4OC(C(=O)O)C(OC5OC(CO)C(O)C(O)C5O)C(O)C4O)C(O)C(C(O)CO)O3)C(OC3OC(CO)C(O)C(O)C3O)C(C(O)CO)O2)C(OP(=O)(O)O)C1OC(=O)CC(O)CCCCCCC (stereo not shown) [Formula (A2)] | Equivalent results were obtained
